Measured values as given in PubChem BioAssay (NCI).
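Grown in 96-well plates, cells were treated for 48 hours with each compound at five concentrations. Insufficient inhibition: endpoint recorded as highest concentration tested. At the GI50, growth is halved. Definition used: TGI = concentration required for complete inhibition of growth.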

Legend:
Test in all cases: NCI anticancer screen, dose series, 48 h
[1] = system: NCI-H522 lung
[2] = system: UACC-62 melanoma
[3] = system: MALME-3M melanoma
[4] = system: HS 578T breast
[5] = system: SK-MEL-2 melanoma
[6] = system: PC-3 prostate
[7] = system: MCF7 breast
[8] = system: SR leukemia
[9] = system: DU-145 prostate
[10] = system: CAKI-1 renal
[11] = system: MDA-N
[12] = system: OVCAR-4 ovarian

Compound	TGI [1] [µM]	GI50 [2] [µM]	TGI [2] [µM]	GI50 [3] [µM]	TGI [3] [µM]	GI50 [1] [µM]	GI50 [4] [µM]	TGI [4] [µM]	GI50 [5] [µM]	TGI [5] [µM]	GI50 [6] [µM]	TGI [6] [µM]	GI50 [7] [µM]	TGI [7] [µM]	GI50 [8] [µM]	TGI [8] [µM]	TGI [9] [µM]	TGI [10] [µM]	TGI [11] [µM]	TGI [12] [µM]
CC(c1ccccc1)/[N+]([O-])=C/c1ccccc1 (configuration not stated)	> 100	–	–	–	–	–	–	–	–	–	–	–	–	–	–	–	–	–	–	–
C[C@]12CCc3sc(Nc4ccc(O)cc4)nc3C1=CC[C@@H]1[C@@H]2CC[C@]2(C)C(=O)CC[C@@H]12	2.96	1.76	4.02	1.81	4.03	1.42	3.38	> 100	6.98	> 100	2.49	8.15	1.66	4.26	2.72	> 100	–	–	–	–
NC(=S)N/N=C1\c2ccccc2CCC1CCC1(O)CCc2ccccc2C1=O (configuration not stated)	–	–	31.7	–	36.7	–	–	63	–	–	–	88.7	–	46.4	–	> 100	> 100	> 100	58.4	> 100
CCOP(=O)(CN=C(c1ccccc1)c1ccccc1)OCC	> 100	–	–	–	–	–	–	> 100	–	> 100	–	> 100	–	> 100	–	> 100	> 100	> 100	> 100	> 100
Cc1ccc(Nc2nc(NS(=O)(=O)c3cc(C(=O)Nc4ccc(Cl)cc4)c(Cl)cc3S)n[nH]2)cc1	–	–	> 100	–	> 100	–	–	> 100	–	–	–	> 100	–	> 100	–	> 100	> 100	> 100	> 100	> 100
CCc1nnc(-c2nsc3ccccc23)s1	–	–	> 100	–	–	–	–	–	–	> 100	–	–	–	–	–	> 100	–	–	–	> 100
O=C(O)CC1(CC(=O)O)Nc2ccccc2SC1=O	> 100	–	> 100	–	> 100	–	–	> 100	–	> 100	–	> 100	–	> 100	–	> 100	> 100	> 100	> 100	> 100
O=C(O)CC1OCC=C2CN3CCC45C6=CC(=O)C(=O)C([N+](=O)[O-])=C6NC4C1C2CC35 (configuration not stated)	> 100	–	> 100	–	> 100	–	–	> 100	–	> 100	–	> 100	–	> 100	–	–	> 100	> 100	> 100	> 100
CC(CCC(=O)O)C1CCC2C3C(O)CC4CC(O)CCC4(C)C3CC(O)C12C (configuration not stated)	> 100	–	> 100	–	> 100	–	–	> 100	–	> 100	–	> 100	–	> 100	–	> 100	> 100	> 100	> 100	> 100
COC1=CC(=O)c2c(O)c3c(c(O)c2C1=O)C=C(C)OC3O (configuration not stated)	3.95	–	1.85	–	0.877	–	–	7.9	–	5.19	–	16.3	–	1.57	–	5.46	2.18	14.5	3.08	4.39
CN1CCN(c2cc(-c3cc4ccccc4o3)oc(=O)c2C#N)CC1	–	–	–	–	> 100	–	–	–	–	> 100	–	–	–	–	–	> 100	–	> 100	–	> 100
COc1ccc(-c2c3c(nc4nc(SC)nc(SC)c24)CCCC3)cc1OC	> 100	–	> 100	–	> 100	–	–	86.3	–	> 100	–	> 100	–	> 100	–	46.4	> 100	> 100	> 100	–
CC1OC1C(=O)C1(O)C(C)C(O)C23OC2(C(O)c2c(O)cccc2C3=O)C1O (configuration not stated)	0.338	–	0.646	–	0.247	–	–	–	–	0.413	–	–	–	2.01	–	–	–	0.253	–	0.0982
C/C(=N\NC(=S)Nc1ccc(C)cc1)c1nc2ncccc2[nH]1	–	–	15	–	37.5	–	–	58.9	–	25.4	–	32.5	–	13.5	–	> 100	13.6	> 100	23.8	16.7
